Experimental data: US20050192261A1, “Methods and reagents for the treatment of immunoinflammatory disorders” (priority 2003, published 2005)
Values joined by “and” are separate entries in the source; they are usually repeats but may differ in a detail not shown here. Identical values can stand only once. Counter-ions that a name gives are not always drawn. Like-named read-outs stand apart in the source and are kept apart here.

Test system: TNFα secretion in white blood cells from human buffy coat stimulated with phorbol 12-myristate 13-acetate and ionomycin
Assay: TNFα secretion assay
Conditions: for inhibition at 0.2 µM: read-out: percent inhibition of TNFα secretion, Loratadine 0.2 μM; for inhibition at 13 µM: read-out: percent inhibition of TNFα secretion, Loratadine 13 μM; for inhibition at 26 µM: read-out: percent inhibition of TNFα secretion, Loratadine 26 μM
[1] = Homo sapiens, Desipramine HCl: 0/0.25/0.5/1/2/4/8/16/32 μM
[2] = Homo sapiens, Fluoxetine HCl μM: 0/0.23/0.45/0.9/1.8/3.6/7.2/14/29
[3] = Homo sapiens, Paroxetine HCl: 0/0.21/0.42/0.83/1.7/3.3/6.7/13/27 μM

CC(CN1c2ccccc2Sc2ccccc21)N(C)C (stereo not drawn) [Promethazine HCl, promethazine]
inhibition at 16 µM (Homo sapiens, read-out: percent inhibition (dose matrix), Table 99, Promethazine HCl 16 μM, Amoxapine 0-25 μM): 30.4% | inhibition at 31 µM (Homo sapiens, read-out: percent inhibition (dose matrix), Table 99, Promethazine HCl 31 μM, Amoxapine 0-25 μM): 80.5% | inhibition at 16 µM (Homo sapiens, read-out: percent inhibition (dose matrix), Table 100, Promethazine HCl 16 μM, Fluoxetine HCl 0-29 μM): 30.8% | inhibition at 31 µM (Homo sapiens, read-out: percent inhibition (dose matrix), Table 100, Promethazine HCl 31 μM, Fluoxetine HCl 0-29 μM): 69.5% | inhibition at 16 µM (Homo sapiens, read-out: percent inhibition (dose matrix), Table 101, Promethazine HCl 16 μM, NOrtriptyline HCl 0-33 μM per row (c1)): 31% | inhibition at 31 µM (Homo sapiens, read-out: percent inhibition (dose matrix), Table 101, Promethazine HCl 31 μM, NOrtriptyline HCl 0-33 μM per row (c1)): 69.4% | inhibition at 16 µM (Homo sapiens, read-out: percent inhibition (dose matrix), Table 102, Promethazine HCl 16 μM, Paroxetine HCl 0-27 μM per row (c1)): 36.7% | inhibition at 31 µM (Homo sapiens, read-out: percent inhibition (dose matrix), Table 102, Promethazine HCl 31 μM, Paroxetine HCl 0-27 μM per row (c1)): 78.8% | inhibition at 16 µM (Homo sapiens, read-out: percent inhibition (dose matrix), Table 105, Promethazine HCl 16 μM, Fluoxetine HCl 0-29 μM): 22% | inhibition at 31 µM (Homo sapiens, read-out: percent inhibition (dose matrix), Table 105, Promethazine HCl 31 μM, Fluoxetine HCl 0-29 μM): 62.3% | inhibition at 16 µM (Homo sapiens, read-out: percent inhibition of TNFα secretion, Promethazine HCl 16 μM, Amoxapine μM r5-r13: 0,0.2,0.4,0.8,1.6,3.2,6.4,13,25): 60.4% | inhibition at 16 µM (Homo sapiens, read-out: percent inhibition of TNFα secretion, Promethazine HCl 16 μM, Desipramine HCl: 0/0.25/0.5/1/2/4/8/16/32 μM): 42.8% | inhibition at 16 µM (Homo sapiens, read-out: percent inhibition of TNFα secretion, Promethazine HCl 16 μM, Fluoxetine HCl μM r5-r13: 0,0.23,0.45,0.9,1.8,3.6,7.2,14,29): 65.3% | inhibition at 16 µM (Homo sapiens, read-out: percent inhibition of TNFα secretion, Promethazine HCl 16 μM, Paroxetine HCl μM by row r5-r13: 0/0.21/0.42/0.83/1.7/3.3/6.7/13/27): 57.1% | inhibition at 16 µM (Homo sapiens, read-out: percent inhibition of TNFα secretion, Promethazine HCl 16 μM, Sertraline HCl by grid row r5-r13: 0/0.25/0.5/1/2/4/7.9/16/32 μM): 40% | inhibition at 31 µM (Homo sapiens, read-out: percent inhibition of TNFα secretion, Promethazine HCl 31 μM, Amoxapine μM r5-r13: 0,0.2,0.4,0.8,1.6,3.2,6.4,13,25): 85.4% | inhibition at 31 µM (Homo sapiens, read-out: percent inhibition of TNFα secretion, Promethazine HCl 31 μM, Desipramine HCl: 0/0.25/0.5/1/2/4/8/16/32 μM): 75.7% | inhibition at 31 µM (Homo sapiens, read-out: percent inhibition of TNFα secretion, Promethazine HCl 31 μM, Fluoxetine HCl μM r5-r13: 0,0.23,0.45,0.9,1.8,3.6,7.2,14,29): 87% | inhibition at 31 µM (Homo sapiens, read-out: percent inhibition of TNFα secretion, Promethazine HCl 31 μM, Paroxetine HCl μM by row r5-r13: 0/0.21/0.42/0.83/1.7/3.3/6.7/13/27): 84.2% | inhibition at 31 µM (Homo sapiens, read-out: percent inhibition of TNFα secretion, Promethazine HCl 31 μM, Sertraline HCl by grid row r5-r13: 0/0.25/0.5/1/2/4/7.9/16/32 μM): 72.1% | inhibition of TNFα secretion (prednisolone 1 μM, promethazine HCl r5-r13: 0,0.24,0.49,0.97,1.9,3.9,7.8,16,31 μM): 38

CCOC(=O)N1CCC(=C2c3ccc(Cl)cc3CCc3cccnc32)CC1 [Loratadine, loratadine]
inhibition at 0.2 µM [1]: -1.95% | inhibition at 0.2 µM [2]: 3.68% | inhibition at 0.2 µM [3]: -1.38% | inhibition at 13 µM [1]: 31.7% | inhibition at 13 µM [2]: 42.9% | inhibition at 13 µM [3]: 38.3% | inhibition at 26 µM [1]: 41.5% | inhibition at 26 µM [2]: 56.6% | inhibition at 26 µM [3]: 43.4%

CNCCC(Oc1ccc(C(F)(F)F)cc1)c1ccccc1 (racemic) [Fluoxetine HCl, (±)-N-methyl-3-phenyl-3-[((alpha),(alpha),(alpha)-trifluoro-p-tolyl)oxy]propylamine hydrochloride]
inhibition at 0.9 µM (Homo sapiens, read-out: percent inhibition of TNFα secretion, Fluoxetine HCl 0.9 μM, Cyproheptadine HCl: 0/0.24/0.48/0.96/1.9/3.9/7.7/15/31 μM): -1.1% | inhibition at 14 µM (Homo sapiens, read-out: percent inhibition of TNFα secretion, Fluoxetine HCl 14 μM, Cyproheptadine HCl: 0/0.24/0.48/0.96/1.9/3.9/7.7/15/31 μM): 16% | inhibition at 29 µM (Homo sapiens, read-out: percent inhibition of TNFα secretion, Fluoxetine HCl 29 μM, Cyproheptadine HCl: 0/0.24/0.48/0.96/1.9/3.9/7.7/15/31 μM): 41% | percent inhibition of TNFα secretion (Promethazine HCl 0 μM, Fluoxetine HCl μM r5-r13: 0,0.23,0.45,0.9,1.8,3.6,7.2,14,29, hydrochloride): 1.71% and −2.67% and 4.37% and 2.89% and −0.34% and −0.46% and −0.103% and 4.12%

CNCCC=C1c2ccccc2CCc2ccccc21.Cl [Nortryptyline HCl]
percent inhibition of TNFα secretion (Nortryptyline HCl 1 μM, Bromodiphenhydramine HCl μM: 0/0.21/0.43/0.85/1.7/3.4/6.8/14/27): 1.7 | percent inhibition of TNFα secretion (Nortryptyline HCl 17 μM, Bromodiphenhydramine HCl μM: 0/0.21/0.43/0.85/1.7/3.4/6.8/14/27): 80 | percent inhibition of TNFα secretion (Nortryptyline HCl 33 μM, Bromodiphenhydramine HCl μM: 0/0.21/0.43/0.85/1.7/3.4/6.8/14/27): 92

Clc1ccc(Cn2c(CN3CCCC3)nc3ccccc32)cc1 [Clemizole HCl, clemizole]
inhibition at 14 µM (Homo sapiens, read-out: percent inhibition (dose matrix), Table 96, Clemizole HCl 14 μM, Amoxapine 0-25 μM): -11.9% | inhibition at 28 µM (Homo sapiens, read-out: percent inhibition (dose matrix), Table 96, Clemizole HCl 28 μM, Amoxapine 0-25 μM): 0.658% | inhibition at 14 µM (Homo sapiens, read-out: percent inhibition (dose matrix), Table 97, Clemizole HCl 14 μM, Nortriptyline HCl 0-33 μM per row (c1)): 5.46% | inhibition at 28 µM (Homo sapiens, read-out: percent inhibition (dose matrix), Table 97, Clemizole HCl 28 μM, Nortriptyline HCl 0-33 μM per row (c1)): 19.5% | inhibition at 14 µM (Homo sapiens, read-out: percent inhibition (dose matrix), Table 98, Clemizole HCl 14 μM, Paroxetine HCl 0-27 μM per row (c1)): 0.085% | inhibition at 28 µM (Homo sapiens, read-out: percent inhibition (dose matrix), Table 98, Clemizole HCl 28 μM, Paroxetine HCl 0-27 μM per row (c1)): -7.43% | inhibition at 14 µM (Homo sapiens, read-out: percent inhibition (dose matrix), Table 103, Clemizole HCl 14 μM, Fluoxetine HCl 0-29 μM): 9.15% | inhibition at 28 µM (Homo sapiens, read-out: percent inhibition (dose matrix), Table 103, Clemizole HCl 28 μM, Fluoxetine HCl 0-29 μM): 9.27% | inhibition at 14 µM (Homo sapiens, read-out: percent inhibition (dose matrix), Table 107, Clemizole HCl 14 μM, Desipramine HCl 0-32 μM per row (c1)): 3.19% | inhibition at 28 µM (Homo sapiens, read-out: percent inhibition (dose matrix), Table 107, Clemizole HCl 28 μM, Desipramine HCl 0-32 μM per row (c1)): 14.9% | inhibition at 14 µM (Homo sapiens, read-out: percent inhibition (dose matrix), Table 108, Clemizole HCl 14 μM, Sertraline HCl 0-32 μM per row (c1)): 4.65% | inhibition at 28 µM (Homo sapiens, read-out: percent inhibition (dose matrix), Table 108, Clemizole HCl 28 μM, Sertraline HCl 0-32 μM per row (c1)): 16.9% | inhibition at 14 µM (Homo sapiens, read-out: percent inhibition of TNFα secretion, Clemizole HCl 14 μM, Amoxapine μM r5-r13: 0,0.2,0.4,0.8,1.6,3.2,6.4,13,25): 20% | inhibition at 14 µM (Homo sapiens, read-out: percent inhibition of TNFα secretion, Clemizole HCl 14 μM, Desipramine HCl: 0/0.25/0.5/1/2/4/8/16/32 μM): 26.4% | inhibition at 14 µM (Homo sapiens, read-out: percent inhibition of TNFα secretion, Clemizole HCl 14 μM, Fluoxetine HCl μM: 0/0.23/0.45/0.9/1.8/3.6/7.2/14/29): 26.1% | inhibition at 14 µM (Homo sapiens, read-out: percent inhibition of TNFα secretion, Clemizole HCl 14 μM, Paroxetine HCl μM r5-r13: 0,0.21,0.42,0.83,1.7,3.3,6.7,13,27): 22.4% | inhibition at 14 µM (Homo sapiens, read-out: percent inhibition of TNFα secretion, Clemizole HCl 14 μM, Sertraline HCl by grid row r5-r13: 0/0.25/0.49/0.99/2/4/7.9/16/32 μM): 24.5% | inhibition at 28 µM (Homo sapiens, read-out: percent inhibition of TNFα secretion, Clemizole HCl 28 μM, Amoxapine μM r5-r13: 0,0.2,0.4,0.8,1.6,3.2,6.4,13,25): 42.5% | inhibition at 28 µM (Homo sapiens, read-out: percent inhibition of TNFα secretion, Clemizole HCl 28 μM, Desipramine HCl: 0/0.25/0.5/1/2/4/8/16/32 μM): 41.4% | inhibition at 28 µM (Homo sapiens, read-out: percent inhibition of TNFα secretion, Clemizole HCl 28 μM, Fluoxetine HCl μM: 0/0.23/0.45/0.9/1.8/3.6/7.2/14/29): 34.1% | inhibition at 28 µM (Homo sapiens, read-out: percent inhibition of TNFα secretion, Clemizole HCl 28 μM, Paroxetine HCl μM r5-r13: 0,0.21,0.42,0.83,1.7,3.3,6.7,13,27): 42.1% | inhibition at 28 µM (Homo sapiens, read-out: percent inhibition of TNFα secretion, Clemizole HCl 28 μM, Sertraline HCl by grid row r5-r13: 0/0.25/0.49/0.99/2/4/7.9/16/32 μM): 43.3% | inhibition of TNFα secretion (prednisolone […], clemizole HCl r5-r13: 0,0.22,0.43,0.86,1.7,3.5,6.9,14,28 μM): 28
